From patent US10865216B2, “Tricyclic Gyrase inhibitors” (MERCK SHARP & DOHME CORP., priority 2012, dated 2020)
In brackets after ≈: the same amount, converted by molar mass.

How the values were obtained:
E. coli ATCC 25922 = assay: MIC, E. coli ATCC 25922; type: cell-based; settings: E. coli; Alamar Blue read after overnight incubation at 35° C.
S. aureus ATCC 13709 = assay: MIC, S. aureus ATCC 13709; type: cell-based; settings: S. aureus; Alamar Blue read after overnight incubation at 35° C.

Row | SMILES | MIC Ec (E. coli ATCC 25922) | MIC Sa (S. aureus ATCC 13709)
1 | CNc1cc(F)cc2c1[nH]c1nc(Oc3cnc(C)nc3)nc(N3CCC4(CC3)NC(=O)NC4=O)c12 [Compound 4.107] | >16 µg/mL | >16 µg/mL
2 | CNc1cc(F)cc2c1[nH]c1nc(Oc3cnc(C)nc3)nc(NCCCN)c12 [Compound 4.108] | >16 µg/mL | 4 µg/mL (≈ 10.1 µM)
3 | CNc1cc(F)cc2c1[nH]c1nc(Oc3cnc(C)nc3)nc(N3CC4CCC(CN)C4C3)c12 (stereo not drawn) [Compound 4.112] | 1 µg/mL (≈ 2.16 µM) | ≤0.5 µg/mL
4 | CNc1cc(F)cc2c1[nH]c1nc(Oc3cnc(C)nc3)nc(N3CC4NCCOC4C3)c12 (stereo not drawn) [Compound 4.114] | 2 µg/mL (≈ 4.44 µM) | ≤0.5 µg/mL
5 | CNc1cc(F)cc2c1[nH]c1nc(Oc3cnc(C)nc3)nc(N3C[C@H](N)C[C@@H]3C)c12 [Compound 4.115] | 8 µg/mL (≈ 18.9 µM) | 1 µg/mL (≈ 2.37 µM)
6 | CNc1cc(F)cc2c1[nH]c1nc(Oc3cnc(C)nc3)nc(N3CC4CCNC4(C)C3)c12 (stereo not drawn) [Compound 4.116] | ≤0.5 µg/mL | ≤0.5 µg/mL
7 | CNc1cc(F)cc2c1[nH]c1nc(Oc3cnc(C)nc3)nc(N3CC4CONC4C3)c12 (stereo not drawn) [Compound 4.122] | 1 µg/mL (≈ 2.29 µM) | ≤0.5 µg/mL
8 | CNc1cc(F)cc2c1[nH]c1nc(Oc3cnc(C)nc3)nc(N3CCC4(CNC4)C3)c12 [Compound 4.125] | 4 µg/mL (≈ 9.21 µM) | ≤0.5 µg/mL
9 | CNc1cc(F)cc2c1[nH]c1nc(Oc3cnc(C)nc3)nc(N3CCC4(CCNC4)C3)c12 (stereo not drawn) [Compound 4.126] | 2 µg/mL (≈ 4.46 µM) | ≤0.5 µg/mL
10 | CNc1cc(F)cc2c1[nH]c1nc(Oc3cnc(C)nc3)nc(N(C)C3CNC3)c12 [Compound 4.134] | >16 µg/mL | >16 µg/mL
11 | CNc1cc(F)cc2c1[nH]c1nc(Oc3cnc(C)nc3)nc(N3CCC(C)(N)CC3)c12 [Compound 4.135] | 1 µg/mL (≈ 2.29 µM) | ≤0.5 µg/mL
12 | CNc1cc(F)cc2c1[nH]c1nc(Oc3cnc(C)nc3)nc(N3CC(N)C3)c12 [Compound 4.138] | ≤0.5 µg/mL | ≤0.5 µg/mL
13 | CNc1cc(F)cc2c1[nH]c1nc(Oc3cnc(C)nc3)nc(N3CCC4(CCC4N)CC3)c12 (stereo not drawn) [Compound 4.139] | ≤0.5 µg/mL | ≤0.5 µg/mL
14 | CNc1cc(F)cc2c1[nH]c1nc(Oc3cnc(C)nc3)nc(N3CC(CN)C3)c12 [Compound 4.143] | 2 µg/mL (≈ 4.9 µM) | ≤0.5 µg/mL
15 | CNc1cc(F)cc2c1[nH]c1nc(Oc3cnc(C)nc3)nc(N3CC4CC(N)C3C4)c12 (stereo not drawn) [Compound 4.148] | 4 µg/mL (≈ 9.21 µM) | ≤0.5 µg/mL
16 | CNc1cc(F)cc2c1[nH]c1nc(Oc3cnc(C)nc3)nc(N3CC4(CCCNC4)C3)c12 [Compound 4.149] | 2 µg/mL (≈ 4.46 µM) | ≤0.5 µg/mL
17 | CNc1cc(F)cc2c1[nH]c1nc(Oc3cnc(C)nc3)nc(N3CCC(N)C(C)(C)C3)c12 (stereo not drawn) [Compound 4.152] | 1 µg/mL (≈ 2.22 µM) | ≤0.5 µg/mL
18 | CNc1cc(F)cc2c1[nH]c1nc(Oc3cnc(C)nc3)nc(N3CC4(CC(N)C4)C3)c12 [Compound 4.153] | 2 µg/mL (≈ 4.6 µM) | ≤0.5 µg/mL
19 | CNc1cc(F)cc2c1[nH]c1nc(Oc3cnc(C)nc3)nc(N3CC4CCNC4C3)c12 (stereo not drawn) [Compound 4.156] | ≤0.5 µg/mL | ≤0.5 µg/mL
20 | CNc1cc(F)cc2c1[nH]c1nc(Oc3cnc(C)nc3)nc(N3CC(N4CC(N)C4)C3)c12 [Compound 4.158] | 4 µg/mL (≈ 8.9 µM) | ≤0.5 µg/mL
21 | CNc1cc(F)cc2c1[nH]c1nc(Oc3cnc(C)nc3)nc(N3CCC(F)(CN)CC3)c12 [Compound 4.159] | ≤0.5 µg/mL | ≤0.5 µg/mL
22 | CNc1cc(F)cc2c1[nH]c1nc(Oc3cnc(C)nc3)nc(-c3ccc(Cl)cc3N)c12 [Compound 4.161] | ≤0.5 µg/mL | ≤0.5 µg/mL
23 | CNc1cc(F)cc2c1[nH]c1nc(Oc3cnc(C)nc3)nc(C3=CCNCC3)c12 [Compound 4.162] | >16 µg/mL | 8 µg/mL (≈ 19.7 µM)
24 | CNc1cc(F)cc2c1[nH]c1nc(Oc3cnc(C)nc3)nc(N3CCNCC3)c12 [Compound 4.163] | ≤0.5 µg/mL | ≤0.5 µg/mL
25 | CNc1cc(F)cc2c1[nH]c1nc(Oc3cncc(OC)c3)nc(N3CC4C(N)C4C3)c12 (stereo not drawn) [Compound 4.164] | 1 µg/mL (≈ 2.3 µM) | ≤0.5 µg/mL
26 | CNc1cc(F)cc2c1[nH]c1nc(Oc3cncc(OC)c3)nc(N3CC4CC(N)C4C3)c12 (stereo not drawn) [Compound 4.167] | ≤0.5 µg/mL | ≤0.5 µg/mL
27 | CNc1cc(F)cc2c1[nH]c1nc(Oc3cncc(-c4nnnn4C)c3)nc(N3CC4C(N)C4C3)c12 (stereo not drawn) [Compound 4.168] | 2 µg/mL (≈ 4.1 µM) | ≤0.5 µg/mL
28 | CNc1cc(F)cc2c1[nH]c1nc(Oc3cncc(-c4nnnn4C)c3)nc(N3CCC(N)C3)c12 (stereo not drawn) [Compound 4.169] | 8 µg/mL (≈ 16.8 µM) | 2 µg/mL (≈ 4.21 µM)

Next, values leading:

Row | MIC Ec (E. coli ATCC 25922) | MIC Sa (S. aureus ATCC 13709) | SMILES
29 | 4 µg/mL (≈ 7.98 µM) | ≤0.5 µg/mL | CNc1cc(F)cc2c1[nH]c1nc(Oc3cncc(-c4nnnn4C)c3)nc(N3CC4C[C@@H](N)C4C3)c12 (stereo partly drawn) [Compound 4.171]
30 | ≤0.5 µg/mL | ≤0.5 µg/mL | CNc1cc(F)cc2c1[nH]c1nc(Oc3cnc(N)nc3)nc(N3CC4C(N)C4C3)c12 (stereo not drawn) [Compound 4.172]
31 | 1 µg/mL (≈ 2.3 µM) | ≤0.5 µg/mL | CNc1cc(F)cc2c1[nH]c1nc(Oc3cnc(N)nc3)nc(N3CCC4(CC4N)C3)c12 (stereo not drawn) [Compound 4.173]
32 | ≤0.5 µg/mL | ≤0.5 µg/mL | CNc1cc(F)cc2c1[nH]c1nc(Oc3cnc(N)nc3)nc(N3CCC4(C[C@H]4N)C3)c12 (stereo partly drawn) [Compound 4.174]
33 | 1 µg/mL (≈ 2.36 µM) | ≤0.5 µg/mL | CNc1cc(F)cc2c1[nH]c1nc(Oc3cnc(N)nc3)nc(N3CCC(CN)C3)c12 (stereo not drawn) [Compound 4.176]
34 | ≤0.5 µg/mL | ≤0.5 µg/mL | CNc1cc(F)cc2c1[nH]c1nc(Oc3cnc(N)nc3)nc(N3CC(N)C4(CC4)C3)c12 (stereo not drawn) [Compound 4.177]
35 | 8 µg/mL (≈ 19 µM) | ≤0.5 µg/mL | CNc1cc(F)cc2c1[nH]c1nc(Oc3cnc(N)nc3)nc(N3CC4CNC4C3)c12 (stereo not drawn) [Compound 4.178]
36 | 1 µg/mL (≈ 2.44 µM) | ≤0.5 µg/mL | CNc1cc(F)cc2c1[nH]c1nc(Oc3cnc(N)nc3)nc(N3CCC(N)C3)c12 (stereo not drawn) [Compound 4.179]
37 | 8 µg/mL (≈ 18.9 µM) | 1 µg/mL (≈ 2.36 µM) | CNc1cc(F)cc2c1[nH]c1nc(Oc3cnc(N)nc3)nc(N3CCCC(N)C3)c12 (stereo not drawn) [Compound 4.180]
38 | 16 µg/mL (≈ 32.5 µM) | 2 µg/mL (≈ 4.06 µM) | CNc1cc(F)cc2c1[nH]c1nc(Oc3cnc(N)nc3)nc(N3CC(NC(=O)CN)C4(CC4)C3)c12 (stereo not drawn) [Compound 4.182]
39 | 8 µg/mL (≈ 17.8 µM) | 1 µg/mL (≈ 2.22 µM) | CNc1cc(F)cc2c1[nH]c1nc(Oc3cnc(N)nc3)nc(N3C4CCC3CC(N)C4)c12 (stereo not drawn) [Compound 4.183]
40 | 1 µg/mL (≈ 2.3 µM) | ≤0.5 µg/mL | CNc1cc(F)cc2c1[nH]c1nc(Oc3cnc(N)nc3)nc(N3CC4CC(N)C4C3)c12 (stereo not drawn) [Compound 4.184]
41 | 8 µg/mL (≈ 18.4 µM) | ≤0.5 µg/mL | CNc1cc(F)cc2c1[nH]c1nc(Oc3cnc(N)nc3)nc(N3CC4CC4(CN)C3)c12 (stereo not drawn) [Compound 4.185]
42 | 2 µg/mL (≈ 4.59 µM) | ≤0.5 µg/mL | CNc1cc(F)cc2c1[nH]c1nc(Oc3cnc(N)nc3)nc(N3CC4CCNC4C3)c12 (stereo not drawn) [Compound 4.187]
43 | 8 µg/mL (≈ 18.4 µM) | ≤0.5 µg/mL | CNc1cc(F)cc2c1[nH]c1nc(Oc3cnc(N)nc3)nc(N3CC4C(CN)C4C3)c12 (stereo not drawn) [Compound 4.188]
44 | 2 µg/mL (≈ 4.45 µM) | ≤0.5 µg/mL | CNc1cc(F)cc2c1[nH]c1nc(Oc3cnc(N)nc3)nc(N3CC4CCC(N)C4C3)c12 (stereo not drawn) [Compound 4.189]
45 | 1 µg/mL (≈ 2.3 µM) | ≤0.5 µg/mL | CNc1cc(F)cc2c1[nH]c1nc(Oc3cnc(N)nc3)nc(N3CC4CC(N)C4C3)c12 (stereo not drawn) [Compound 4.190]
46 | ≤0.5 µg/mL | ≤0.5 µg/mL | CNc1cc(F)cc2c1[nH]c1nc(Oc3cnc(SC)nc3)nc(N3CC4C(N)C4C3)c12 (stereo not drawn) [Compound 4.193]
47 | 1 µg/mL (≈ 2.14 µM) | ≤0.5 µg/mL | CNc1cc(F)cc2c1[nH]c1nc(Oc3cnc(SC)nc3)nc(N3CCC4(CC4N)C3)c12 (stereo not drawn) [Compound 4.195]
48 | ≤0.5 µg/mL | ≤0.5 µg/mL | CNc1cc(F)cc2c1[nH]c1nc(Oc3cnc(SC)nc3)nc(N3CC4CC(N)C4C3)c12 (stereo not drawn) [Compound 4.196]
49 | ≤0.5 µg/mL | ≤0.5 µg/mL | CNc1cc(F)cc2c1[nH]c1nc(Oc3cnc(SC)nc3)nc(N3CC4C(CN)C4C3)c12 (stereo not drawn) [Compound 4.197]
50 | ≤0.5 µg/mL | ≤0.5 µg/mL | CNc1cc(F)cc2c1[nH]c1nc(Oc3cnc(SC)nc3)nc(N3CC4CCNC4C3)c12 (stereo not drawn) [Compound 4.198]
51 | ≤0.5 µg/mL | ≤0.5 µg/mL | CNc1cc(F)cc2c1[nH]c1nc(Oc3cnc(SC)nc3)nc(N3CCC(N)C3)c12 (stereo not drawn) [Compound 4.199]
52 | ≤0.5 µg/mL | ≤0.5 µg/mL | CNc1cc(F)cc2c1[nH]c1nc(Oc3cnc(SC)nc3)nc(N3CC4CCC(N)C4C3)c12 (stereo not drawn) [Compound 4.200]
53 | ≤0.5 µg/mL | ≤0.5 µg/mL | CNc1cc(F)cc2c1[nH]c1nc(Oc3cnc(SC)nc3)nc(N3CC4CC(N)C4C3)c12 (stereo not drawn) [Compound 4.201]
54 | ≤0.5 µg/mL | ≤0.5 µg/mL | CNc1cc(F)cc2c1[nH]c1nc(Oc3cnc(SC)nc3)nc(N3CC4(CC[C@H]4N)C3)c12 [Compound 4.202]
55 | ≤0.5 µg/mL | ≤0.5 µg/mL | CNc1cc(F)cc2c1[nH]c1nc(Oc3cnc(SC)nc3)nc(N3CCC4(C[C@H]4N)C3)c12 (stereo partly drawn) [Compound 4.203]
56 | ≤0.5 µg/mL | ≤0.5 µg/mL | CNc1cc(F)cc2c1[nH]c1nc(Oc3cncc(-c4cncnc4)c3)nc(N3CC4C(N)C4C3)c12 (stereo not drawn) [Compound 4.205]
57 | 4 µg/mL (≈ 8.48 µM) | ≤0.5 µg/mL | CNc1cc(F)cc2c1[nH]c1nc(Oc3cncc(-c4cn[nH]c4)c3)nc(N3CC4C(N)C4C3)c12 (stereo not drawn) [Compound 4.206]
